Data as given in patent publication US4088778A, “Method for the treatment of hypertension” (priority 1975, dated 1978).

Assay: Clinical Test I, double blind: subjective symptoms
Type: in vivo, human patients
Conditions: for Stiffness in Shoulders: Improvement ratio: P group 45.2
Experimental: 94 patients of hypertension or arteriosclerosis having subjective symptoms were tested, and some of them suffered from complications such as ischemia heart disease, hypertensive heart disease and encephalomalacia.
As the active drug, there were employed hard capsules, each containing 100 mg of TN.
Two capsules were orally administered at one time, and the administration was conducted three times a day after eating. The period of the administration was principally 4 weeks or 6 weeks. During this period, the administration was performed continuously. Combined administration of drugs having the same function as that of TN (vitamin E drugs, nicotinic acid, its derivatives and peripheral vasolidators) was prohibited. Drugs which had been continuously administered since before the start of the administration of TN were similarly administered according to the disease case and symptom, and change of the prescription during the test was avoided.
In the above Table, the "Improved" means that the symptom was improved by at least one grade as compared with the symptom before the administration,and each number denotes the total number of the patients in whom the symptom was thus improved.
*The patients were divided into two groups, one in which the symptom was
improved by at least 2 grades (the sum of the patients in which the
symptoms were improved by 2, 3 and 4 grades) and the other in which the
symptom was improved by one grade, unchanged or worsened. The assay was
conducted on these two groups. (In other cases, the patients were divided
into two groups, one in which the symptom was improved by one grade and
the other in which the symptom was unchanged or worsened, and the assay
was made on these two groups.)
according to Fischer direct probability calculation method.

[1] = number of patients, total 3 (Table 9)
[2] = number of patients, total 7 (Table 9)
[3] = number of patients, total 8 (Table 9)
[4] = number of patients, total 9 (Table 9)
[5] = number of patients, total 9 (Table 10)
[6] = number of patients, total 11 (Table 9)
[7] = number of patients, total 13 (Table 9)
[8] = number of patients, total 14 (Table 9)
[9] = number of patients, total 15 (Table 9)
[10] = number of patients, total 16 (Table 9)
[11] = number of patients, total 16 (Table 10)
[12] = number of patients, total 17 (Table 9)
[13] = number of patients, total 18 (Table 9)
[14] = number of patients, total 18 (Table 10)
[15] = number of patients, total 23 (Table 9)
[16] = number of patients, total 23 (Table 10)
[17] = number of patients, total 25 (Table 9)
[18] = number of patients, total 25 (Table 10)
[19] = number of patients, total 26 (Table 9)
[20] = number of patients, total 26 (Table 10)
[21] = number of patients, total 28 (Table 9)
[22] = number of patients, total 28 (Table 10)
[23] = number of patients, total 30 (Table 9)
[24] = number of patients, total 51 (Table 10)

## Cc1c(C)c2c(c(C)c1OC(=O)c1cccnc1)CCC(C)(CCCC(C)CCCC(C)CCCC(C)C)O2 (racemic) [TN, dl-α-tocopheryl nicotinate]
Table 9, P group 21.7
  Forgetfulness: Improvement Ratio: 38.9%
Table 9, P group 37.5
  Virtigo: Improvement Ratio: 66.7%
Table 9, P group 40.0
  Pains on Waist and Back: Improvement Ratio: 64.7%
  Syncope: Improvement Ratio: 75.0%
Table 9, P group 41.2
  Chill on Limbs: Improvement Ratio: 35.7%
Table 9, P group 43.8
  Stiffness in Nape: Improvement ratio: 68.0%
Table 9
  Stiffness in Shoulders: Improvement ratio: 65.4%
Table 9, P group 47.4
  Insomnia: Improvement ratio: 83.3%
Table 9, P group 50.0
  Dizzy Feeling: Improvement ratio: 81.3%
  Irritation: Improvement Ratio: 66.7%
  Rush of Blood: Improvement Ratio: 69.2%
Table 9, P group 52.6
  Tinnitus: Improvement Ratio: 50.0%
Table 9, P group 53.8
  Palsy in Limbs: Improvement ratio: 82.6%
  Short Breath: Improvement Ratio: 42.9%
Table 9, P group 62.5
  Heaviness in Head: Improvement Ratio: 82.1%
Table 9, P group 63.6
  Oppression on Breast: Improvement Ratio: 62.5%
Table 9, P group 66.7
  Warmness: Improvement Ratio: 77.8%
Table 9, P group 70.6
  Languor: Improvement Ratio: 60.0%
Table 9, P group 76.9
  Palpitation: Improvement Ratio: 72.7%
Table 9, P group 77.8
  Depression: Improvement Ratio: 42.9%
Table 9, P group 78.6
  Headache: Improvement ratio: 83.3%
Table 9, P group 100.0
  Pain on Breast: Improvement Ratio: 71.4%
Table 10, P group 37.5
  Vertigo: Improvement ratio: 66.7%
Table 10, P group 43.8, chi0^2 = 3.3270, P < 0.10
  Stiffness in Nape: Improvement ratio: 68.0%
Table 10, P group 44.4, chi0^2 = 5.6104, P < 0.025
  Stiffness in Shoulders and Nape: Improvement ratio: 66.7%
Table 10
  Stiffness in Shoulders: Improvement ratio: 65.4%
Table 10, P group 46.4, chi0^2 = 8.3955, P < 0.005
  Vertigo plus Dizzy Feeling: Improvement ratio: 73.1%
Table 10, P group 47.4, P = 0.0247
  Insomnia: Improvement ratio: 83.3%
Table 10, P group 50.0, chi0^2 = 7.4243, P < 0.01
  Dizzy Feeling: Improvement ratio: 81.3%
Table 10, P group 53.8, P = 0.0318
  Palsy in Limbs: Improvement ratio: 82.6%
Table 10, P group 62.5, chi0^2 = 3.1277, P < 0.10
  Headache: Improvement ratio: 82.1%
human, in vivo
  relief of headache, vertigo, dizzy feeling, syncope, stiffness in the shoulders, stiffness in the nape, palsy in limbs, insomnia and pains on the waist and the back: excellent effects were attained
[1]
  Irritation: Improved: 2
  Irritation: Unchanged or Worsened: 1
[2]
  Depression: Improved: 3
  Depression: Unchanged or Worsened: 4
  Pain on Breast: Improved: 5
  Pain on Breast: Unchanged or Worsened: 2
  Short Breath: Improved: 3
  Short Breath: Unchanged or Worsened: 4
[3]
  Oppression on Breast: Improved: 5
  Oppression on Breast: Unchanged or Worsened: 3
  Syncope: Improved: 6
  Syncope: Unchanged or Worsened: 2
[4]
  Virtigo: Improved: 6
  Virtigo: Unchanged or Worsened: 3
  Warmness: Improved: 7
  Warmness: Unchanged or Worsened: 2
[5]
  Vertigo: Improved by 1 grade: 1
  Vertigo: Improved by 2 grades: 3
  Vertigo: Improved by 3 grades: 1
  Vertigo: Improved by 4 grades: 1
  Vertigo: Not Changed: 2
  Vertigo: Worsened by 1 grade: 1
  Vertigo: Worsened by 2 grades: 0
[6]
  Palpitation: Improved: 8
  Palpitation: Unchanged or Worsened: 3
[7]
  Rush of Blood: Improved: 9
  Rush of Blood: Unchanged or Worsened: 4
[8]
  Chill on Limbs: Improved: 5
  Chill on Limbs: Unchanged or Worsened: 9
[9]
  Languor: Improved: 9
  Languor: Unchanged or Worsened: 6
[10]
  Dizzy Feeling: Improved: 13
  Dizzy Feeling: Unchanged or Worsened: 3
  Tinnitus: Improved: 8
  Tinnitus: Unchanged or Worsened: 8
[11]
  Dizzy Feeling: Improved by 1 grade: 0
  Dizzy Feeling: Improved by 2 grades: 11
  Dizzy Feeling: Improved by 3 grades: 1
  Dizzy Feeling: Improved by 4 grades: 1
  Dizzy Feeling: Not Changed: 2
  Dizzy Feeling: Worsened by 1 grade: 1
  Dizzy Feeling: Worsened by 2 grades: 0
[12]
  Pains on Waist and Back: Improved: 11
  Pains on Waist and Back: Unchanged or Worsened: 6
[13]
  Forgetfulness: Improved: 7
  Forgetfulness: Unchanged or Worsened: 11
  Insomnia: Improved: 15
  Insomnia: Unchanged or Worsened: 3
[14]
  Insomnia: Improved by 1 grade: 7
  Insomnia: Improved by 2 grades: 7
  Insomnia: Improved by 3 grades: 0
  Insomnia: Improved by 4 grades: 1
  Insomnia: Not Changed: 2
  Insomnia: Worsened by 1 grade: 1
  Insomnia: Worsened by 2 grades: 0
[15]
  Palsy in Limbs: Improved: 19
  Palsy in Limbs: Unchanged or Worsened: 4
[16]
  Palsy in Limbs: Improved by 1 grade: 11
  Palsy in Limbs: Improved by 2 grades: 7
  Palsy in Limbs: Improved by 3 grades: 1
  Palsy in Limbs: Improved by 4 grades: 0
  Palsy in Limbs: Not Changed: 4
  Palsy in Limbs: Worsened by 1 grade: 0
  Palsy in Limbs: Worsened by 2 grades: 0
[17]
  Stiffness in Nape: Improved: 17
  Stiffness in Nape: Unchanged or Worsened: 8
[18]
  Stiffness in Nape: Improved by 1 grade: 11
  Stiffness in Nape: Improved by 2 grades: 5
  Stiffness in Nape: Improved by 3 grades: 1
  Stiffness in Nape: Improved by 4 grades: 0
  Stiffness in Nape: Not Changed: 5
  Stiffness in Nape: Worsened by 1 grade: 2
  Stiffness in Nape: Worsened by 2 grades: 1
  Vertigo plus Dizzy Feeling: Improved by 1 grade: 1
  Vertigo plus Dizzy Feeling: Improved by 2 grades: 14
  Vertigo plus Dizzy Feeling: Improved by 3 grades: 2
  Vertigo plus Dizzy Feeling: Improved by 4 grades: 2
  Vertigo plus Dizzy Feeling: Not Changed: 4
  Vertigo plus Dizzy Feeling: Worsened by 1 grade: 2
  Vertigo plus Dizzy Feeling: Worsened by 2 grades: 0
[19]
  Stiffness in Shoulders: Improved: 17
  Stiffness in Shoulders: Unchanged or Worsened: 9
[20]
  Stiffness in Shoulders: Improved by 1 grade: 10
  Stiffness in Shoulders: Improved by 2 grades: 5
  Stiffness in Shoulders: Improved by 3 grades: 0
  Stiffness in Shoulders: Improved by 4 grades: 2
  Stiffness in Shoulders: Not Changed: 8
  Stiffness in Shoulders: Worsened by 1 grade: 1
  Stiffness in Shoulders: Worsened by 2 grades: 0
[21]
  Heaviness in Head: Improved: 23
  Heaviness in Head: Unchanged or Worsened: 5
[22]
  Headache: Improved by 1 grade: 7
  Headache: Improved by 2 grades: 12
  Headache: Improved by 3 grades: 4
  Headache: Improved by 4 grades: 0
  Headache: Not Changed: 4
  Headache: Worsened by 1 grade: 1
  Headache: Worsened by 2 grades: 0
[23]
  Headache: Improved: 25
  Headache: Unchanged or Worsened: 5
[24]
  Stiffness in Shoulders and Nape: Improved by 1 grade: 13
  Stiffness in Shoulders and Nape: Improved by 2 grades: 21
  Stiffness in Shoulders and Nape: Improved by 3 grades: 1
  Stiffness in Shoulders and Nape: Improved by 4 grades: 2
  Stiffness in Shoulders and Nape: Not Changed: 3
  Stiffness in Shoulders and Nape: Worsened by 1 grade: 1
  Stiffness in Shoulders and Nape: Worsened by 2 grades: 0
